Patent publication US6770597B2, “Benzohydrazide derivatives as herbicides and desiccant compositions containing them” (Ishihara Sangyo Kaisha, Ltd., priority 2002, dated 2004)

How the values were obtained:
Format in all cases: in vivo
[1] = tested on: barnyardgrass (Echinochloa crus-galli, ECHCG); experiment: Greenhouse herbicide screen, post-emerge application, phytotoxicity rating; details: POST emergent, 14 days after application, scale 0-100
Method in brief: (§1)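 Acetone-dissolved compounds are sprayed over pots at 15 to 1000 g ai/ha with a flat fan nozzle 40–45 cm above the target. Pre-emerge pots are top-watered immediately to incorporate; post-emerge pots are bottom-watered. Plants are rated 0–100 after 14 days.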

[2] = tested on: cocklebur (Xanthium strumarium, XANST); experiment: as above; details: POST emergent, 14 days after application, scale 0-100
Method in brief: as §1

[3] = tested on: common ragweed (Ambrosia artemisiifolia L., AMBEL); experiment: as above; details: POST emergent, 14 days after application, scale 0-100
Method in brief: as §1

[4] = tested on: green foxtail (Setaria viridis, SETVI); experiment: as above; details: POST emergent, 14 days after application, scale 0-100
Method in brief: as §1

[5] = tested on: ivyleaf morningglory (Ipomoea hederacea, IPOHE); experiment: as above; details: POST emergent, 14 days after application, scale 0-100
Method in brief: as §1

[6] = tested on: johnsongrass (Sorghum halepense, SORHA); experiment: as above; details: POST emergent, 14 days after application, scale 0-100
Method in brief: as §1

[7] = tested on: lambsquarters (Chenopodium album, CHEAL); experiment: as above; details: POST emergent, 14 days after application, scale 0-100
Method in brief: as §1

[8] = tested on: large crabgrass (Digitaria sanguinalis, DIGSA); experiment: as above; details: POST emergent, 14 days after application, scale 0-100
Method in brief: as §1

[9] = tested on: redroot pigweed (Amaranthus retrofiexus, AMARE); experiment: as above; details: POST emergent, 14 days after application
Method in brief: as §1

[10] = tested on: sicklepod (Cassia obtusifolia, CASOB); experiment: as above; details: POST emergent, 14 days after application, scale 0-100
Method in brief: as §1

[11] = tested on: velvetleaf (Abutilon theophrasti, ABUTH); experiment: as above; details: POST emergent, 14 days after application, scale 0-100
Method in brief: as §1

[12] = tested on: field corn (Zea mays L., var. Dekalb 535, CORN); experiment: Greenhouse herbicide screen, post-emerge application, crop damage rating; details: POST emergent, 14 days after application, scale 0-100
Method in brief: as §1

[13] = tested on: upland rice (Oryza sp., var.Cocodrie, RICE); experiment: as above; details: POST emergent, 14 days after application, scale 0-100
Method in brief: as §1

[14] = tested on: barnyardgrass (Echinochloa crus-galli, ECHCG); experiment: Greenhouse herbicide screen, pre-emerge application, phytotoxicity rating; details: PRE emergent, 14 days after application, rating scale 0-100
Method in brief: as §1

[15] = tested on: cocklebur (Xanthium strumarium, XANST); experiment: as above; details: PRE emergent, 14 days after application, rating scale 0-100
Method in brief: as §1

[16] = tested on: common ragweed (Ambrosia artemisiifolia L., AMBEL); experiment: as above; details: PRE emergent, 14 days after application, rating scale 0-100
Method in brief: as §1

[17] = tested on: green foxtail (Setaria viridis, SETVI); experiment: as above; details: PRE emergent, 14 days after application, rating scale 0-100
Method in brief: as §1

[18] = tested on: ivyleaf morningglory (Ipomoea hederacea, IPOHE); experiment: as above; details: PRE emergent, 14 days after application, rating scale 0-100
Method in brief: as §1

[19] = tested on: johnsongrass (Sorghum halepense, SORHA); experiment: as above; details: PRE emergent, 14 days after application, rating scale 0-100
Method in brief: as §1

[20] = tested on: lambsquarters (Chenopodium album, CHEAL); experiment: as above; details: PRE emergent, 14 days after application, rating scale 0-100
Method in brief: as §1

[21] = tested on: large crabgrass (Digitaria sanguinalis, DIGSA); experiment: as above; details: PRE emergent, 14 days after application, rating scale 0-100
Method in brief: as §1

[22] = tested on: redroot pigweed (Amaranthus retrofiexus, AMARE); experiment: as above; details: PRE emergent, 14 days after application, rating scale 0-100
Method in brief: as §1

[23] = tested on: sicklepod (Cassia obtusifolia, CASOB); experiment: as above; details: PRE emergent, 14 days after application, rating scale 0-100
Method in brief: as §1

[24] = tested on: velvetleaf (Abutilon theophrasti, ABUTH); experiment: as above; details: PRE emergent, 14 days after application, rating scale 0-100
Method in brief: as §1

[25] = tested on: field corn (Zea mays L., var. Dekalb 535, CORN); experiment: Greenhouse herbicide screen, pre-emerge application, crop damage rating; details: PRE emergent, 14 days after application, rating scale 0-100
Method in brief: as §1

[26] = tested on: upland rice (Oryza sp., var.Cocodrie, RICE); experiment: as above; details: PRE emergent, 14 days after application, rating scale 0-100
Method in brief: as §1

Cn1c(C(F)(F)F)cc(=O)n(-c2cc(C(=O)NN(Cc3ccccc3)Cc3ccccc3)c(Cl)cc2F)c1=O [Compound 1-29]
55: phytotoxicity rating ECHCO ([1]; 63 g ai/ha) | phytotoxicity rating ECHCG ([14]; 63 g ai/ha)
10: crop damage rating CORN ([12]; 63 g ai/ha) | crop damage rating RICE ([13]; 250 g ai/ha) | crop damage rating CORN ([25]; 63 g ai/ha) | crop damage rating RICE ([26]; 250 g ai/ha)
100: phytotoxicity rating ECHCO ([1]; 250 g ai/ha) | phytotoxicity rating AMBEL ([3]; 250 g ai/ha) | phytotoxicity rating SETVI ([4]; 250 g ai/ha) | phytotoxicity rating IPOHE ([5]; 250 g ai/ha) | phytotoxicity rating SORHA ([6]; 250 g ai/ha) | phytotoxicity rating CHEAL ([7]; 63 g ai/ha) | phytotoxicity rating CHEAL ([7]; 250 g ai/ha) | phytotoxicity rating DIGSA ([8]; 250 g ai/ha) | phytotoxicity rating AMARE ([9]; 63 g ai/ha, scale 0-100 (0 no damage, 100 complete death)) | phytotoxicity rating AMARE ([9]; 250 g ai/ha, scale 0-100) | phytotoxicity rating CASOB ([10]; 250 g ai/ha) | phytotoxicity rating ABUTH ([11]; 63 g ai/ha) | phytotoxicity rating ABUTH ([11]; 250 g ai/ha) | phytotoxicity rating ECHCG ([14]; 250 g ai/ha) | phytotoxicity rating AMBEL ([16]; 250 g ai/ha) | phytotoxicity rating SETVI ([17]; 250 g ai/ha) | phytotoxicity rating IPOHE ([18]; 250 g ai/ha) | phytotoxicity rating SORHA ([19]; 250 g ai/ha) | phytotoxicity rating CHEAL ([20]; 63 g ai/ha) | phytotoxicity rating CHEAL ([20]; 250 g ai/ha) | phytotoxicity rating DIGSA ([21]; 250 g ai/ha) | phytotoxicity rating AMARE ([22]; 63 g ai/ha) | phytotoxicity rating AMARE ([22]; 250 g ai/ha) | phytotoxicity rating CASOB ([23]; 250 g ai/ha) | phytotoxicity rating ABUTH ([24]; 63 g ai/ha) | phytotoxicity rating ABUTH ([24]; 250 g ai/ha)
75: phytotoxicity rating AMBEL ([3]; 63 g ai/ha) | phytotoxicity rating AMBEL ([16]; 63 g ai/ha)
99: phytotoxicity rating SETVI ([4]; 63 g ai/ha) | phytotoxicity rating SORHA ([6]; 63 g ai/ha) | phytotoxicity rating SETVI ([17]; 63 g ai/ha) | phytotoxicity rating SORHA ([19]; 63 g ai/ha)
50: phytotoxicity rating CASOB ([10]; 63 g ai/ha) | crop damage rating CORN ([12]; 250 g ai/ha) | phytotoxicity rating CASOB ([23]; 63 g ai/ha) | crop damage rating CORN ([25]; 250 g ai/ha)
90: phytotoxicity rating XANST ([2]; 250 g ai/ha) | phytotoxicity rating IPOHE ([5]; 63 g ai/ha) | phytotoxicity rating XANST ([15]; 250 g ai/ha) | phytotoxicity rating IPOHE ([18]; 63 g ai/ha)
85: phytotoxicity rating DIGSA ([8]; 63 g ai/ha) | phytotoxicity rating DIGSA ([21]; 63 g ai/ha)
0: phytotoxicity rating XANST ([2]; 63 g ai/ha) | crop damage rating RICE ([13]; 63 g ai/ha) | phytotoxicity rating XANST ([15]; 63 g ai/ha) | crop damage rating RICE ([26]; 63 g ai/ha)
